Assay results published in patent publication US8815954B2, “Arginine heteromers for topical administration” (Revance Therapeutics, Inc., priority 2005, dated 2014).

Columns and labels:
[1] = system: human forehead skin perfusion; test: Human forehead tissue perfusion by Laser Doppler Flowmeter after topical application; type: in vivo; conditions: lip balm formulation 4.0 mg/ml topical, readings every 30 seconds for 5 minutes from one minute after application (n=55)
Protocol: Mean and standard error were assessed using Statview (Abacus Concepts, Berkeley, Calif.), with comparisons made using ANOVA repeated measures and significance determined at 95% with post-hoc testing using Fisher PLSD or Scheffe F-test. All procedures and analyses were performed by blinded observers.

murine skin = test: In vivo cumulative efficacy for topical delivery of arginine across murine skin; morphological assessment of treated skin sections by image analysis; set-up: species or system C57 black 6 female mice; conditions: mice, topical 200 μl once daily for 7 days in Cetaphil cream, dorsal skin harvested 24 hours after last treatment, H&E image analysis
Protocol: In vivo cumulative efficacy for topical delivery of arginine across murine skin.
The potential for a heteromer of arginine to cross the skin and exert previously characterized benefits related to arginine/NOS activity was evaluated by examining arginine-vitamin E and arginine-palmitate heteromers in an animal model system. While both heteromers improve the lipid solubility relative to arginine alone and should increase transdermal flux, the vitamin E heteromer is also expected to afford additional functional benefits due to its anti-oxidant properties.
1. Arg-palmitate: 0.9996 g of arginine+palmitate were dissolved in 6 ml of jojoba oil (Essential Wholesale, Portland, Oreg.), then diluted with 6 ml (1:1 dilution) of Cetaphil cream.
2. Arg-vitamin E: 0.419 g of arginine+vitamin E were dissolved in 6 ml of deionized H2O then diluted with 6 ml (1:1 dilution) of Cetaphil cream.
Daily-dose topical treatments of metered 200 μl aliquots were prepared for treatments of Arg-palmitate, Arg-vitamin E, or Cetaphil control in 650 μl microcentrifuge tubes.
Animals (C57 black 6 female mice, Charles River Laboratories, Wilmington, Mass.) were anesthetized via inhalation of isoflurane mixed with oxygen and then injected with 0.5 ml rodent anesthetic cocktail (3.75 ml of 100 mg/ml Ketamine, 3.00 ml of 20 mg/ml Xylazine, and 23.25 ml of saline) intraperitoneally. The animals were supplemented with isoflurane as necessary. Treatment groups contained 4 mice each and the control group 3 mice. After being anesthetized, a 2.0 cm×2.0 cm dose site on the dorsum of each mouse was carefully shaved with a hair clipper on the first day of treatment application and animals underwent depilatory treatment in the same dorsal region using a rosin mixture (Surgiwax, Ardell International, Los Angeles, Calif.). Animals were anesthetized via inhalation of isoflurance only during the application of treatments in Cetaphil moisturizing cream (Galderma, Fort Worth, Tex.) and had metered 200 μl doses of the appropriate treatment applied to the cranial portion of dorsal back skin (selected because the mouse cannot reach this region with mouth or limbs). Animals remained under anesthesia for 1-2 minutes while the appropriate treatment was applied into the skin with small metal spatula. […]
High resolution digital images of each section were obtained using a Retiga 1300B camera (QImaging, Burnaby, BC, Canada). Images were analyzed using Image-Pro Plus analysis software (Media Cybernetics, Silver Springs, Md.) to determine morphological assessment and expressed as positive pixels. Mean and standard error were subsequently determined for each group using Statview software (Abacus, Berkeley, Calif.), with analysis of significance at 95% confidence in Wilcoxon signed ranks.

Cc1c(C)c2c(c(C)c1OC(=O)C(N)CCCNC(=N)N)CCC(C)(CCCC(C)CCCC(C)CCCC(C)C)O2 (centres unmarked) [Arg-Vitamin E]
Forehead perfusion, Mean [1]: 8.016 tissue perfusion units
Dermis: dermal thickness, Mean (murine skin): 35779 positive pixels
Epidermis: epidermal thickness, Mean (murine skin): 16475 positive pixels
Fat: fat thickness/density, Mean (murine skin): 21386 positive pixels
Hair: hair length, Mean (murine skin): 18316 positive pixels
